# According to article PMC8766756, “Insights on Cancer Cell Inhibition, Subcellular Activities, and Kinase Profile of Phenylacetamides Pending 1H-Imidazol-5-One Variants” (Frontiers in Pharmacology, 2022):
# Entries after “also recorded” stand apart in the source; their conditions may differ.
# Legend:
# [1] = Stability in mouse plasma; type: in vitro ADME; details: 1 µM, t1/2; listed as KIM-161
# Description: The assay was conducted at 37°C in triplicate. The test compound KIM-161 or procaine (the positive control) was tested at a final concentration of 1 µM in either 2.5% DMSO/CD-1 mouse plasma (Innovative Research, Novi, MI; sodium heparin added as anticoagulant; pH adjusted to 7.4 with 2N HCl on the day of use) or 2.5% DMSO/PBS (pH 7.4; 136.9 mM NaCl, 2.68 mM KCl, 8.1 mM Na2HPO4, 1.47 mM KH2PO4, 0.9 mM CaCl2, and 0.49 mM MgCl2). At seven time points, the reaction mixture aliquots were transferred to 96-shallow-well stop plates on ice containing acetonitrile with 0.1 µM propafenone. Samples were analyzed by LC/MS/MS on a Waters Xevo TQ instrument as described above using positive electrospray ionization. The assay acceptance criterion was 20% for all standards and 25% for the LLOQ. GraphPad® Prism v.5.04 was used for nonlinear fitting of data to generate t1/2 values.
# [2] = test system: ERK1/2 (T202/Y204, T185/Y187); assay: Human Phospho-Kinase Array in HL60 cells; type: cell-based
# Excerpt: (§1) We also measured changes in kinase activities of some selected Ser/Thr kinases using the Human Phospho-Kinase Array® kit (R&D Systems) which encompasses phosphoprotein-specific capture antibodies spotted at a certain location (in duplicates) on a nitrocellulose membrane. The signal intensities, detected by a sandwich immunoassay, are proportional to the amount of each phosphokinase in the cell lysate (Figure 8).
# (§2) FIGURE 8 Phosphokinase proteome profile of KIM-161 in HL60 cell line. (A) Cells lysates were prepared after 10 h treatment with KIM-161 and applied to the membranes prespotted with the different antibodies. […] The height of each bar represents the average intensity of certain protein signals in treated cells/untreated × 100. Therefore, the dotted line represents the control percentage (100%).
# (§3) The phosphorylation profile of 48 kinases was performed using the Proteome Profiler Human Phospho-Kinase Array an antibody array kit, by R&D Systems (Minneapolis, MN, USA). Total protein was extracted from the cell lysates treated with 365 nM KIM-161 for 10 h using the lysis buffer provided in the kit and quantified using the Bio-Rad DC Protein Assay kit (USA). The nitrocellulose membrane set (A&B), pre-spotted with the capture antibodies, was first blocked with 1 ml of Array buffer 1 at RT for 1 h in an 8-well multi-dish on a rocking platform shaker. Approximately 600 µg of protein concentrate (<334 µL) was diluted in the Array buffer 1 to a final volume of 2 ml. 1 ml of the protein sample was added onto the membrane set and incubated overnight at 4°C on a rocking platform shaker. Subsequently, membranes were washed with 15 ml of 1× wash buffer thrice for 5 min at RT, and the excess buffer was completely drained. The membranes A&B were then incubated with appropriate detection antibody cocktails A&B that were reconstituted using the 1× Array buffer 2/3 for 2 h at RT. After the incubation was complete, the membranes were washed with 15 ml of 1× wash buffer thrice for 5 min at RT, and the excess buffer was completely drained. Streptavidin-HRP (1:2000), diluted in 1× Array buffer 2/3, was applied onto the membranes and incubated for 30 min at RT on a rocking platform shaker. The membranes were washed thrice, and Chemi Reagent 1&2 were applied in equal volumes for detection on C-DiGit®Blot Scanner (LI-COR Odyssey Imaging Systems, Lincoln, Nebraska, USA) using the Image Studio 5.0 software.
# [3] = test system: HSP60; assay: Human Phospho-Kinase Array in HL60 cells; type: cell-based
# Excerpt: as §1, §2, §3
# [4] = test system: Chk-2; assay: Human Phospho-Kinase Array in HL60 cells; type: cell-based
# Excerpt: as §1, §2, §3
# [5] = test system: HSP27 (S78/S82); assay: Human Phospho-Kinase Array in HL60 cells; type: cell-based
# Excerpt: as §1, §2, §3
# [6] = test system: JNK 1/2/3; assay: Human Phospho-Kinase Array in HL60 cells; type: cell-based
# Excerpt: as §1, §2, §3
# [7] = test system: C-Jun; assay: Human Phospho-Kinase Array in HL60 cells; type: cell-based
# Excerpt: as §1, §2, §3
# [8] = test system: AMPKα1; assay: Human Phospho-Kinase Array in HL60 cells; type: cell-based
# Excerpt: as §1, §2, §3
# [9] = test system: AKT 1/2/3; assay: Human Phospho-Kinase Array in HL60 cells; type: cell-based; details: 10 h (KIM-161 365 nM)
# Excerpt: as §1, §2, §3
# [10] = test system: STAT2 (Y689); assay: Human Phospho-Kinase Array in HL60 cells; type: cell-based
# Excerpt: as §1, §2, §3
# [11] = ERK1/2 spot, HL60 cells, 10 h (KIM-161 365 nM)
# [12] = HL60, 365 nM, 10 h, vs untreated, listed as KIM-161
# [13] = HL60, 365 nM, 10 h, vs untreated
# [14] = HSP60 spot, HL60 cells, 10 h (KIM-161 365 nM)
# [15] = Chk-2 spot, HL60 cells, 10 h (KIM-161 365 nM)
# [16] = HSP27 spot, HL60 cells, 10 h (KIM-161 365 nM)
# [17] = JNK 1/2/3 spot, HL60 cells, 10 h (KIM-161 365 nM)
# [18] = C-Jun spot, HL60 cells, 10 h (KIM-161 365 nM)
# [19] = AMPKα1 spot, HL60 cells, 10 h (KIM-161 365 nM)
# [20] = STAT2 spot, HL60 cells, 10 h (KIM-161 365 nM)
smiles,measurement,setting,value
"COc1ccc(/C=C2\N=C(C)N(c3ccc(CC(=O)NCc4ccccc4)cc3)C2=O)cc1 [Compound 4c, (Z)-N-Benzyl-2-(4-(4-(4-methoxybenzylidene)-2-methyl-5-oxo-4,5-dihydro-1H-imidazol-1-yl)phenyl)acetamide]",Stability in mouse plasma at 37°C,[1],>300 min
same,Normalized to HK,[2]; [11],0.0000
same,Normalized x10K,[2]; [11],0.00
same,Signal,[2]; [11],0.00
same,change of ERK1/2 phosphokinase signal,[2]; [12],strongly suppresses; also recorded: strong downregulation
same,activity at 0.365 µM,"[2]; Homo sapiens, HL-60, ERK1/2 spot, HL60 cells, 10 h (KIM-161 365 nM), untreated = 100, read-out: % Ctrl",0%
same,reduction of HSP60 activity,[3]; [13],28.5%
same,Normalized to HK,[3]; [14],0.0227
same,Normalized x10K,[3]; [14],227.18
same,Signal,[3]; [14],90.20
same,activity at 0.365 µM,"[3]; Homo sapiens, HL-60, HSP60 spot, HL60 cells, 10 h (KIM-161 365 nM), untreated = 100, read-out: % Ctrl",71.5%
same,Normalized to HK,[4]; [15],0.00913
same,Normalized x10K,[4]; [15],91.25
same,Signal,[4]; [15],32.06
same,change of Chk-2 activity,[4]; [13],upregulated
same,change of HSP27 phosphokinase signal,[5]; [12],strongly suppresses; also recorded: strong downregulation
same,Normalized to HK,[5]; [16],0.00
same,Normalized x10K,[5]; [16],0.00
same,Signal,[5]; [16],0.00
same,activity at 0.365 µM,"[5]; Homo sapiens, HL-60, HSP27 spot, HL60 cells, 10 h (KIM-161 365 nM), untreated = 100, read-out: % Ctrl",0%
same,reduction of JNK1/2/3 activity,[6]; [13],26.0%
same,activity at 0.365 µM,"[6]; Homo sapiens, HL-60, JNK 1/2/3 spot, HL60 cells, 10 h (KIM-161 365 nM), untreated = 100, read-out: % Ctrl",74%
same,Normalized to HK,[6]; [17],0.0031
same,Normalized x10K,[6]; [17],31.34
same,Signal,[6]; [17],11.01
same,Normalized to HK,[7]; [18],0.1136
same,Normalized x10K,[7]; [18],1136.44
same,Signal,[7]; [18],451.20
same,enhancement of c-Jun,[7]; [13],15.8%
same,activity at 0.365 µM,"[7]; Homo sapiens, HL-60, C-Jun spot, HL60 cells, 10 h (KIM-161 365 nM), untreated = 100, read-out: % Ctrl",116%
same,Normalized to HK,[8]; [19],0.0019
same,Normalized x10K,[8]; [19],18.91
same,Signal,[8]; [19],6.64
same,change of AMPKα1 phosphorylation,[8]; [12],downregulated; also recorded: to a quarter of its level compared to the control
same,activity at 0.365 µM,"[8]; Homo sapiens, HL-60, AMPKα1 spot, HL60 cells, 10 h (KIM-161 365 nM), untreated = 100, read-out: % Ctrl",27.9%
same,Normalized to HK,[9]; AKT 1/2/3 spot,0.00
same,Normalized x10K,[9]; AKT 1/2/3 spot,0.00
same,Signal,[9]; AKT 1/2/3 spot,0.00
same,activity at 0.365 µM,"[9]; Homo sapiens, HL-60, AKT 1/2/3 spot, untreated = 100, read-out: % Ctrl",0%
same,change of STAT2 phosphokinase signal,[10]; [12],strongly suppresses; also recorded: strong downregulation
same,activity at 0.365 µM,"[10]; Homo sapiens, HL-60, STAT2 spot, HL60 cells, 10 h (KIM-161 365 nM), untreated = 100, read-out: % Ctrl",0%
same,Normalized to HK,[10]; [20],0.00
same,Normalized x10K,[10]; [20],0.00
same,Signal,[10]; [20],0.00
